Compound	melting point
COc1ccc(S(=O)(=O)C(CCCc2ccccc2)(CCCc2ccccc2)C(=O)NO)cc1	118 to 120 °C
O=c1[nH]c(=O)c2cc3occoc3cc12	277 to 280 °C
CC(=O)OCc1c(C(=O)C(=O)O)c2cc(OCc3ccccc3)ccc2n1Cc1ccc(C(C)(C)C)cc1	145 to 146 °C
CCOC(=O)c1cc(C(=O)OCC)c(N)[nH]1	147 to 149 °C
CCCCCCC1C(=O)NC(C(=O)SCCNC(C)=O)(C(O)C2C=CCCC2)C1(C)O (centres undefined)	82 °C
COc1ccccc1[C@@]1(O)[C@H](O)CC(c2ccccc2)(c2ccccc2)[C@@H]2CN(C(=O)Cc3ccccc3N3CCCC3)C[C@@H]21 (racemic)	236 °C
CN1CCN(c2cc(N)c([N+](=O)[O-])cc2F)CC1	154 to 155 °C
Cn1c2cc(Cl)cc(Cl)c2c2cc(C(=O)N3CCOCC3)sc21	224 to 226 °C
COC(=O)COc1ccc2cc(-c3cnc(-c4cn(Cc5ccccc5)c5ccccc45)o3)ccc2c1	204 to 207 °C
Cc1oc(-c2ccccc2)nc1COc1ccc2c(-c3ccccc3)c(COc3nn(-c4ccccc4)cc3C(=O)O)oc2c1	200 to 201 °C
CC(=O)CN1CCNC1=Nc1cc2c(cc1Br)OCCO2	98 to 100 °C
C=CCC(C(N)=O)C(N)=O	168 to 169 °C
CCCc1c(CSc2nnc(SCCCC(=O)O)s2)ccc(C(C)=O)c1O	75 to 78 °C
CC1(CCl)COC(N)=N1 (centres undefined)	61 to 62 °C
COC(=O)c1sc2c(c1O)CN(C(=O)OC(C)(C)C)CC2	84.5 to 86 °C
NC(=S)Nc1cnccn1	234 to 235 °C
Cc1ccccc1COC(=O)c1ccc(C(=O)N2Cc3ccccc3Cc3ccccc32)cc1	140 to 142 °C
C=C(C)C(=O)OCCN(C(=O)c1ccc(C(=O)O)cc1C(=O)O)C(C)(C)C	74 °C
CCC1C(=O)c2cc(OCC(=O)O)c(C)c(C)c2C1=O (centres undefined)	187 to 193 °C
NCCCOc1ccc(-c2nnc(CSCCOc3ccccc3)o2)cc1	30 to 35 °C
Nc1c(F)c(N2CCNCC2)c(F)c2c1c(=O)c(C(=O)O)cn2C1CC1	257 to 259 °C
CC(C)N(C1CCCC1)S(=O)(=O)N[C@@H](Cc1ccc(NC(=O)c2c(Cl)cncc2Cl)cc1)C(=O)O	157 °C
Cc1ccc(-c2[nH]c3c(Br)cc(Br)cc3c(=O)c2Cc2ccncc2)cc1	206 to 208 °C
O=C(OC(c1ccccc1)c1ccccc1)C(NC=S)c1ccccc1 (centres undefined)	129 to 130 °C
ON=C1CCC(c2ccccc2F)c2ccccc21 (centres undefined)	120 °C

Compound	melting point
CNc1nc(C)nc(N2CCCC(C)C2)n1 (centres undefined)	155 to 156 °C
CC(=O)Oc1ccc(CC(=O)Nc2ncc(-c3ccc(OC(C)=O)cc3)nc2Cc2ccccc2)cc1	225 to 227 °C
CCCc1c(SCCCCSc2nc3ccc(C(=O)O)cc3[nH]2)ccc(C(C)=O)c1O	90 to 95 °C
CCCN(CC1CC1)C(=O)c1c2c(nn1C)N(c1c(C)cc(C)cc1Cl)CCC2	121 to 122 °C
N#CC1(C#N)C2CCC(C2)C1(Cl)Cl (centres undefined)	148 °C
CCCCCCCNC(=O)Nc1ccccc1N(C)C(=O)c1cc(C(C)(C)C)c(O)c(C(C)(C)C)c1	193 to 196 °C
COC12CC(C)(c3nnc(-c4cncc(Br)c4)o3)CN(C)C1Cc1cn(C)c3cccc2c13 (centres undefined)	171 to 174 °C
CCCCc1nc2cccnc2n1-c1ccc(OCc2ccc(OC)c(OC3CC4CCC3C4)c2)cc1 (centres undefined)	130 to 132 °C
Cc1c2c3c(nc(N)c2nn1C)CCCC3	258 to 259 °C
Cc1cccc(-c2[nH]c(C(C)(C)C)nc2-c2ccnc(-c3ccc(CN(C)C)cc3)c2)n1	187 °C
COC[C@@H]1CCCN1S(=O)(=O)c1ccc(Cl)c(COc2cccc3c(-n4ccnc4)cc(C)nc23)c1Cl	66 °C
O=C(O)CCCNC(=O)c1ccccc1NC(=O)c1ccc(Cl)cc1	182 to 184 °C
NC(=S)c1ncn(C2OC(COS(N)(=O)=O)C(O)C2O)n1 (centres undefined)	173 to 175 °C
O=C(NCCCNc1c([N+](=O)[O-])cnc2ccccc12)c1ccccc1	209 to 211 °C
CCCn1nc2c(N)nc3c(c2c1CC(C)(C)O)CCCC3	143 to 145 °C
CCCc1oc(C)cc1C(=O)O	91 to 102 °C
O=[N+]([O-])c1cccc(S(=O)(=O)N(CCO)CCO)c1	100 to 102 °C
COc1cc2cc3c(Nc4ccc(OCc5ccccc5)c(Cl)c4)c(C#N)cnc3cc2cc1OCCCl	182 to 185 °C
COC(=O)/C=C/c1ccc(-c2nc3c(=O)n(CC4CCCCC4)c(=O)n(CC4CCCCC4)c3[nH]2)cc1	> 270 °C
COC(=O)NC(CC(=O)c1ccc(Cl)cc1)C(=O)O (centres undefined)	141 to 142 °C
CC#CCOc1ccc(S(=O)(=O)N(C)C(C(=O)NO)C(C)(C)SCCN2CCCC2)cc1 (centres undefined)	55 to 57 °C
N#Cc1c2c(c3c(c1N1CCCC1)CCc1ccccc1-3)-c1ccccc1C2	220 to 222 °C
CC(=O)Oc1cc(-c2ccccc2)ccc1C1(OC(C)=O)C(=O)c2ccccc2C1=O	165 to 167 °C
N#CC(=C1Nc2ccccc2O1)S(=O)(=O)c1ccccc1	215 to 218 °C
CC(C)(O)C#Cc1ncn2c1[C@@H]1CCCN1C(=O)c1c(Cl)cccc1-2	234 to 235 °C

Now from value to compound:

melting point	Compound
167 to 168 °C	Cc1ccc(C(NC(N)=S)c2ccccc2)cc1 (centres undefined)
143 to 144 °C	CCC(C)(C)c1ccc(Oc2cccc(C#N)c2C#N)c(C(C)(C)CC)c1
116 to 118 °C	CCOC(=O)c1c(NCc2ccc(OC)c(Cl)c2)ccnc1Cl
56 to 57 °C	NC(=O)OCC1COC(C(F)(F)Cl)(C(F)(F)Cl)O1 (centres undefined)
57.6 °C	CC#CCOc1cc(Cc2c(F)cccc2F)ncn1
105 to 110 °C	Nc1ncccc1OCc1ccccc1C(F)(F)F
275 °C	Cc1cc(-c2ccc(Cl)cc2)nc2c(-c3nc(-c4cccc(S(N)(=O)=O)c4)no3)cnn12
93 to 95 °C	CCn1nc(C(C)(C)C)cc1C(=O)Nc1ccc(F)c(C(=O)N(C)C)c1
142 to 145 °C	CN1C(=O)C(c2cc[nH]c2)(c2cccc(O)c2)N=C1N (centres undefined)
330 to 332 °C	Nc1nc(-c2ccccc2)nc2c1=NCC(=O)N=2
106 to 107 °C	COc1ccc(CCn2cnc3ccc(-c4cccc(C(=O)NCCN5CCCC5)c4)nc32)cc1OC
161 to 163 °C	Nc1nc(Cl)cc(Oc2ccc3c(c2)OCCN3C(=O)OCc2ccccc2)n1
120 to 123 °C	CC(=O)c1cc(NS(C)(=O)=O)ccc1F
57 °C	CCOC(=O)CCNCC(O)COc1cccc(C)c1 (centres undefined)
248 °C	CCOC(=O)C1Cc2c([nH]c3cccc(C#N)c23)CN1 (centres undefined)
185 to 187 °C	NS(=O)(=O)c1c(Cl)cccc1-c1ccccc1
224 to 227 °C	CC(=O)c1sc(Nc2cc[nH]n2)nc1C
181 to 183 °C	O=C1CCC(N2C(=O)c3cccc(CNC(=O)c4cccc(Br)n4)c3C2=O)C(=O)N1 (centres undefined)
191 to 192 °C	COC(=O)c1cnn(-c2cccc(Cl)c2)c1C(N)=O
133 to 135 °C	CN1C(=O)COc2cc(S(=O)Cc3ccccc3)ccc21 (centres undefined)
157 to 158 °C	COc1ccc(-n2cnc3ccc(-c4nnc(SCc5cccc(C#N)c5)o4)cc32)cc1
157 to 158 °C	Cc1nc2cccc3n(CCCNS(=O)(=O)CC(F)(F)F)c(=O)c1n23
168 °C	CC(C)(C)c1ccc(S(=O)(=O)n2c(CCCC(=O)O)cc3nc(Cl)ccc32)cc1
95 to 97 °C	CC(C)=CCCN1C(=O)c2ccccc2C1=O
76 to 77 °C	Cc1cc(Oc2cccc(C(F)(F)F)c2)nn1C(N)=O

melting point	Compound
158 °C	CCOC(=O)C1=C(N)NC(N)=C(C(=O)OCC)C1c1ccccc1C
126 to 128 °C	N#CN=C(Nc1cccnc1)NC(NC(=O)c1ccc(Cl)cc1)C(Cl)(Cl)Cl (centres undefined)
179 to 181 °C	CC(O)c1ccc(C(C)Oc2cncc(C(=O)Nc3ccc(C#N)cc3)c2)cc1 (centres undefined)
173 °C	CCc1nc2cc(CO)c(Cl)cc2n1-c1ccc(CCOC(=O)NS(=O)(=O)c2ccc(C)cc2)cc1
170 to 172 °C	N#CCCNC(=O)C1=CC(CF)(CF)Oc2ccc(C#N)cc21
127 to 128 °C	C[C@@H](C(=O)c1ccccc1)[C@H](NC(=O)C(F)(F)F)C(=O)OC(C)(C)C
112 to 114 °C	ONc1cccc(OCc2nc3ccccc3s2)c1
135 to 140 °C	CC(=O)SCCc1ncn(C(c2ccccc2)(c2ccccc2)c2ccccc2)n1
97 to 99 °C	O=C1Cc2ccccc2N1C1=NCCS1
136 °C	Cc1cc2c(cc1C#N)OCC(C)(C)C=C2c1ccccn1
90 to 91.5 °C	CC(C)(C)c1ccc(CN=C2SCN(c3ccccc3)C(=O)N2CC(F)(F)F)cc1
108 to 109 °C	COC(=O)Cc1cccc(OC)c1OCCCc1cn(-c2ccc([N+](=O)[O-])cn2)nc1C(C)C
118 to 120 °C	CC(=O)NC(C)(C)c1ccc(CN2CCN(c3nccs3)CC2)cc1
239 to 241 °C	COc1ccc2c(c1)Sc1ccccc1C(=S)N2
129 to 130 °C	Cc1nn(-c2ccccn2)cc1COc1ccc(CCC(=O)O)cc1
342 °C	COc1ccc(-c2sc(NC(C)=O)nc2C)cc1S(N)(=O)=O
97 °C	CCN1C[C@@H](C(=O)OC(C)(C)C)N(C(=O)OCc2ccccc2)C1=O
90 to 92 °C	CC(C)(C)c1ccc(OCC(O)CN2CCCC3(CSC4=C(O3)c3ccccc3C(=O)C4=O)C2)cc1 (centres undefined)
127 to 130 °C	COc1ccc(-c2cc(OCc3ccccc3)c(=O)n(C)c2-c2ccncc2)cc1
206 to 207 °C	O=C(CCc1cccc(C(F)(F)F)c1)NNC(=O)c1ccc2ncsc2c1
272 to 274 °C	Cc1ccc(Sc2cncc3sc(C(=O)O)cc23)cc1
180 to 184 °C	Cn1nnnc1CC(=O)c1cc(F)c(Cl)cc1N
78 to 80 °C	CS(=O)(=O)N(Cc1cccnc1)Cc1ccc(Cl)cc1Cl
86 to 87 °C	COc1cc(COC(=O)CCc2nc(-c3ccc(Cl)cc3)co2)cc(OC)c1OC

Reference: a melting point compilation (Tetko et al.; mined from patent text by program, amines drawn as free bases though some values may be those of a salt)
